Measurements taken from patent US8460669B2, “Compositions and methods for identifying response targets and treating flavivirus infection responses” (Academia Sinica, priority 2005, dated 2013).

B1: 8H8F5: anti-human DVLR1/CLEC5A monoclonal antibody; VH SEQ ID NO: 64, VL SEQ ID NO: 65 (antibody, V domains shown)
VH: ESGRGLVQPGGSRKLSCAASGFTFSTSGMHWVRQAPEKGLEWVAYISSGSTTIYHADTVKGRFTISRDNPKNTLFLQMTSLRSEDTAMYYCARSGQFGNYFDYWGQGTTLTVSS
VL: MTQSPKFLLVSAGDRVTLTCKASQSVNNDVYWYQQEPGQSPKLLIYYASNRYTGVPDRFTGSGYGTDFTFTISTVQSEDLAVYFCQHDYSSPYTFGGGTKLEIKR

What was measured:
[1] = biological target: T1, Dectin-1 (Homo sapiens, UniProt Q9BXN2); experiment: Sugar competition EIA, Fc.Dectin-1 binding to GLPS-F3; conditions: sugar 1 mg/ml
T1 construct: The extracellular domains of lectin receptors, TREMs and TLTs were cloned by the reverse-transcriptase polymerase chain reaction (RT-PCR); made in house; host or cells: 293-F (FreeStyle 293) cells
T1 sequence (Q9BXN2 66-247 limits assumed): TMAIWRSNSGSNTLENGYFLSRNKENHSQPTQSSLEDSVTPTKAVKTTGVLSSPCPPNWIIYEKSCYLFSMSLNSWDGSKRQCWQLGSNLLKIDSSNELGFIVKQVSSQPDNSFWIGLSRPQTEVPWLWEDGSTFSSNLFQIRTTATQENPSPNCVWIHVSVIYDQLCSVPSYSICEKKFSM
Protocol: (§1) The interaction between GLPS-F3 and receptor.Fc was then tested. Unbiotinylated GLPS-F3 was immobilized at 100 ng/well as described above, and 100 μL receptor.Fc fusion protein (1 μg/ml in 2 mM MgCl2/2 mM CaCl2/1% BSA/TBST) was added into each well and incubated for 1 hour at room temperature. After washing with TBST, wells were incubated with peroxidase-conjugated goat anti-human IgG Ab (1:5000 dilution, Jackson ImmunoResearch Laboratories) in blocking buffer at room temperature for 30 min. Wells were incubated with 100 μL TMB substrate for 15 min after TBST washing and read at 450 nm in a Fusion plate reader (Perkin Elmer). The results were normalized with respect to Fc.Dectin-1 binding (Dectin-1 is a known lectin receptor that binds to β-1,3-glucan which is the backbone found in GLPS-F3). FIG. 6B depicts in graphical form the affinity of each receptor for GLPS-F3 relative to Dectin-1. […] There was also weaker but positive GLPS-F3 binding ability (25-50% binding intensity compared to Fc.dectin-1) found in Fc.NKG2D, Fc.MINCLE, Fc.mKCR, DCAL1.Fc, DEC205.Fc, Endo180.Fc and NKp30(NCR3).Fc.
(§2) To understand the interaction of GLPS-F3 with specific innate immunity receptors, the polysaccharides mannan and β-glucan and the monosaccharides D-mannose (Man), D-glucose (Glc), N-acetyl-glucosamine (GlcNAc), D-galactose (Gal), N-acetyl-galactosamine (GalNAc), L-fucose (Fuc) and sialic acid, were used in a competition assay. […] The assays were carried out as in Example 9, with the addition of 1 mg/ml of each polysaccharide or monosaccharide.

[2] = biological target: T2, Langerin (Homo sapiens, UniProt Q9UJ71); experiment: Sugar competition EIA, Fc.Langerin binding to GLPS-F3; conditions: sugar 1 mg/ml
T2 construct: The extracellular domains of lectin receptors, TREMs and TLTs were cloned by the reverse-transcriptase polymerase chain reaction (RT-PCR); made in house; host or cells: 293-F (FreeStyle 293) cells
Protocol: as §1, §2

[3] = biological target: T3, DC-SIGN (Homo sapiens, UniProt Q9NNX6); experiment: Sugar competition EIA, Fc.DC-SIGN binding to GLPS-F3; conditions: sugar 1 mg/ml
T3 construct: The extracellular domains of lectin receptors, TREMs and TLTs were cloned by the reverse-transcriptase polymerase chain reaction (RT-PCR); made in house; host or cells: 293-F (FreeStyle 293) cells
T3 sequence (Q9NNX6 59-404 limits assumed): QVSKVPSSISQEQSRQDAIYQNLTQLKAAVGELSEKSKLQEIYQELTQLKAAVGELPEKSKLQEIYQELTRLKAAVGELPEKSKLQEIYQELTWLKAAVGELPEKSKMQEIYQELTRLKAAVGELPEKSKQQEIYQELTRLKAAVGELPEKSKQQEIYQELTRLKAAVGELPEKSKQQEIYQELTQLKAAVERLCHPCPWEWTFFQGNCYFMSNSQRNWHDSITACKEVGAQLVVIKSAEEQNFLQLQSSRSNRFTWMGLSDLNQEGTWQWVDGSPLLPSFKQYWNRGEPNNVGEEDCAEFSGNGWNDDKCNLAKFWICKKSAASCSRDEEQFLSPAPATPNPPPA
Protocol: as §1, §2

[4] = biological target: T4, TLR4.Fc (Homo sapiens, UniProt O00206); experiment: Sugar competition EIA, TLR4.Fc binding to GLPS-F3; conditions: sugar 1 mg/ml
T4 construct: The extracellular domains of several innate immunity receptors from immune cells were cloned by reverse-transcription polymerase chain reaction (RT-PCR); made in house; host or cells: 293-F (FreeStyle 293) cells
Protocol: as §1, §2

[5] = biological target: T5, MMR.Fc (Homo sapiens, UniProt P22897); experiment: Sugar competition EIA, MMR.Fc binding to GLPS-F3; conditions: sugar 1 mg/ml
T5 construct: The extracellular domains of lectin receptors, TREMs and TLTs were cloned by the reverse-transcriptase polymerase chain reaction (RT-PCR); made in house; host or cells: 293-F (FreeStyle 293) cells
T5 sequence (P22897 19-1389 limits assumed): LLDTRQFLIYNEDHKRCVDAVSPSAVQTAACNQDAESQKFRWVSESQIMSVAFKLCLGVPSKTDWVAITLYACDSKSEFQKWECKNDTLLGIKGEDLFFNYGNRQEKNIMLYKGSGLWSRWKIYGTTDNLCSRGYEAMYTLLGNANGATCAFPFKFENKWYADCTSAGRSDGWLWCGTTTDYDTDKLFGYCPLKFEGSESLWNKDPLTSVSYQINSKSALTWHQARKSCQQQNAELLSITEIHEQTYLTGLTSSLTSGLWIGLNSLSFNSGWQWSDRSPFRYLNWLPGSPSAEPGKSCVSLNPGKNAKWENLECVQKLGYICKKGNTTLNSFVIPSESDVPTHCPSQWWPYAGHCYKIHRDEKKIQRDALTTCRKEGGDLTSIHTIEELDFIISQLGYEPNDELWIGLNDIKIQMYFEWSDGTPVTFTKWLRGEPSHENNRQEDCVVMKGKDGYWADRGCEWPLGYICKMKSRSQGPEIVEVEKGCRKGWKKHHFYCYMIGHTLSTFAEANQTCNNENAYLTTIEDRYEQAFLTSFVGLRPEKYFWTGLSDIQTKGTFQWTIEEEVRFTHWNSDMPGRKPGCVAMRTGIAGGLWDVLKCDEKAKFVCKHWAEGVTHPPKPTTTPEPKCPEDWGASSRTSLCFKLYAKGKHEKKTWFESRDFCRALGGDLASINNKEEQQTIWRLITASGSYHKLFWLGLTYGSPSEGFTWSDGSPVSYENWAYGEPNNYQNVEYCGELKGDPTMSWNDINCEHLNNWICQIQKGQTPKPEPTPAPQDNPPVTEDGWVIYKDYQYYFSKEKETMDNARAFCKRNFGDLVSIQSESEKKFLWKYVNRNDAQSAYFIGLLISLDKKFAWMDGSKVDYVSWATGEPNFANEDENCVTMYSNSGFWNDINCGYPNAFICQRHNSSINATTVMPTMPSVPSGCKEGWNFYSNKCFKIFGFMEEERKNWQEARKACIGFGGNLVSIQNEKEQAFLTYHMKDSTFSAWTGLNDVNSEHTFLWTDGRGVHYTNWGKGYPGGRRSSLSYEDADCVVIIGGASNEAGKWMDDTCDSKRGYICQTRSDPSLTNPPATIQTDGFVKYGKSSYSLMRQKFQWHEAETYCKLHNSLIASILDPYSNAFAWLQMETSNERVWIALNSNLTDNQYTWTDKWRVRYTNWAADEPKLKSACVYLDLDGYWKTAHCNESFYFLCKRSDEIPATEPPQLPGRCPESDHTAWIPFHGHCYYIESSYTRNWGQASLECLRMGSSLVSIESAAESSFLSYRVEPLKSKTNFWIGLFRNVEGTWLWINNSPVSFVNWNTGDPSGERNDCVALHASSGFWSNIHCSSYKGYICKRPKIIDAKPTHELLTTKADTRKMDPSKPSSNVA
Protocol: as §1, §2

[6] = biological target: T6, CLEC-2 (Homo sapiens, UniProt Q9P126); experiment: Sugar competition EIA, Fc.CLEC-2 binding to GLPS-F3; conditions: sugar 1 mg/ml
T6 construct: The extracellular domains of lectin receptors, TREMs and TLTs were cloned by the reverse-transcriptase polymerase chain reaction (RT-PCR); made in house; host or cells: 293-F (FreeStyle 293) cells
Protocol: as §1, §2

[7] = biological target: T7, CLEC-6 (Homo sapiens, UniProt Q8WXI8); experiment: Sugar competition EIA, Fc.CLEC-6 binding to GLPS-F3; conditions: sugar 1 mg/ml
T7 construct: The extracellular domains of lectin receptors, TREMs and TLTs were cloned by the reverse-transcriptase polymerase chain reaction (RT-PCR); made in house; host or cells: 293-F (FreeStyle 293) cells
T7 sequence (Q8WXI8 39-215 limits assumed): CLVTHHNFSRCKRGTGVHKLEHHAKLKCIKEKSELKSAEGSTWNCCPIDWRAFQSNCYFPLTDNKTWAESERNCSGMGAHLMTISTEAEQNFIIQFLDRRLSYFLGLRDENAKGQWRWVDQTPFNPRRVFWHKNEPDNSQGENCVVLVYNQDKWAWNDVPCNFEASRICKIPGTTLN
Protocol: as §1, §2

[8] = biological target: T8, DVLR1/CLEC5A (Homo sapiens, UniProt Q9NY25); experiment: DV-induced TNF-α secretion from human macrophages with anti-DVLR1/CLEC5A mAbs; type: cell-based
T8 construct: endogenous in cells; host or cells: human CD14+ PBMC-derived macrophages (M-CSF, 6 days)
T8 sequence (Q9NY25 1-188): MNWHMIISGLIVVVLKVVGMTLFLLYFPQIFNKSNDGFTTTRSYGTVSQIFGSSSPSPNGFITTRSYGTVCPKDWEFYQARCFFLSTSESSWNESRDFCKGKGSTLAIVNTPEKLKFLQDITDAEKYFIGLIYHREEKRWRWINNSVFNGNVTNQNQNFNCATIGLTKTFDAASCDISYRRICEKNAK
Text: Monoclonal antibodies against DVLR1/CLEC5A were generated using standard techniques. Briefly, mice were immunized with DVLR-1.Fc fusion protein, and hybridomas were formed by fusing spienocytes from the mice with P3/NSI/1-Ag4-1 [NS-1] myeloma cells (ATCC TIB-18). Among the mAbs generated, clone 9B12, the subclones of 3E12 (clones 3E12A2, 3E12C1, 3E12G9), and clone 8H8F5 suppressed TNF-α release from macrophages after infection with DEN1 (strain 766733A), DEN2 (strain PL046), DEN3 (strain H-87), and DEN4 (strain 866146A) in a dose-dependent manner. […] In accordance with standard nomenclature, each antibody is referred to via the clone number of the hybridoma that secretes it.
According to embodiments illustrated in FIG. 19, DVLR1/CLEC5A is critical for DV-mediated TNF-α, but not IFN-α, secretion. More specifically, FIG. 19a illustrates the dose-dependency of DV and UV-DV induced TNF-α secretion by macrophages measured by ELISA at 6 h and 12 h p.i. FIG. 19b illustrates the kinetics of TNF-α expression after DV infection (m.o.i.=5). FIG. 19c illustrates the effects of DVLR1/CLEC5A and DC-SIGN shRNAs on the secretion of TNF-α, IL-6, MIP1-α, IL-8, IP-10, and IFN-α from DV-infected macrophages (m.o.i.=5). In FIG. 19d, knockdown experiments with receptor specific shRNAs illustrating that DV-induced IFN-α secretion is via the TLR7-MyD88 pathway and TNF-α secretion is via DVLR1/CLEC5A-TLR7-MyD88 pathway. FIG. 19e illustrates antagonistic anti-DVLR1/CLEC5A mAbs inhibiting TNF-α secretion in response to DV serotypes 1-4 is inhibited (see Table 3).
M.R. mAb (anti-mannose receptor mAb; mIgG1) and murine IgM (mIgM) were used as negative controls. In both FIG. 19d and FIG. 19e, macrophages were infected with DV (m.o.i.=5) and harvested at 36 h p.i. for cytokine assays. Data are expressed as mean±s.d. of three independent experiments (using material from at least three different donors). Two-tailed, Student's t-tests were performed. “ND” represents not detected.

[9] = antibody 10 μg/sample, p vs isotype control, m.o.i.=5, 36 h p.i.

T4 sequence (O00206 24-631 limits assumed): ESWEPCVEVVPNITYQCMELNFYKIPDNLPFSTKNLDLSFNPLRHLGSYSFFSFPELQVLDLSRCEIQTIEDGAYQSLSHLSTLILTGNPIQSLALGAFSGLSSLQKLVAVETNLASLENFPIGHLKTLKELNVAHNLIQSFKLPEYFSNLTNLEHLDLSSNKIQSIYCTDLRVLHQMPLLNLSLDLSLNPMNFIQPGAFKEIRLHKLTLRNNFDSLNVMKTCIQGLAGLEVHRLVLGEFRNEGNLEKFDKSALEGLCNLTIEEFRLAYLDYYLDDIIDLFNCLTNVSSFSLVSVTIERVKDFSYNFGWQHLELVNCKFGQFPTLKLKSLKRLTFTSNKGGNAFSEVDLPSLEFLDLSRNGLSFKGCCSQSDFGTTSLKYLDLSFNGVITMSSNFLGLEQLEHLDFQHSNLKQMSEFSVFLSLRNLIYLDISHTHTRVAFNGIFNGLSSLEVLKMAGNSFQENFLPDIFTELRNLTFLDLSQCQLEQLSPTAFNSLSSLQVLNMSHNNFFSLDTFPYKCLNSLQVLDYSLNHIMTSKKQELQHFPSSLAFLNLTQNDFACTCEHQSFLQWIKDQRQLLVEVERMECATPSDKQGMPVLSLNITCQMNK
T6 sequence (Q9P126 55-229 limits assumed): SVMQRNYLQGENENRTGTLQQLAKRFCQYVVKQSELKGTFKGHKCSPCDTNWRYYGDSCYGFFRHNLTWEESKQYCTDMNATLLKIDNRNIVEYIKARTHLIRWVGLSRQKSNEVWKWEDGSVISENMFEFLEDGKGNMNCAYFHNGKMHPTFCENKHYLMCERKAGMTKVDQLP
T2 sequence (Q9UJ71 65-328 limits assumed): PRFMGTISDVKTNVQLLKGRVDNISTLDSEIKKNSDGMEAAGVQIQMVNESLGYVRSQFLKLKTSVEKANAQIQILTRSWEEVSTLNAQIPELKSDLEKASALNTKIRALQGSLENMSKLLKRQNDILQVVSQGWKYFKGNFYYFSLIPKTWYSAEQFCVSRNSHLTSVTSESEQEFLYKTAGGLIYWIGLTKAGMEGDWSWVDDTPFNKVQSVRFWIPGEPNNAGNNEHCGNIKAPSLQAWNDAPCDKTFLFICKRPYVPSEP

Molecule | Percentage of binding of Dectin-1 Fc fusion to GLPS-F3 relative to binding in absence of sugar competitor [1] [%] | Percentage of binding of Langerin Fc fusion to GLPS-F3 relative to binding in absence of sugar competitor [2] [%] | Percentage of binding of DC-SIGN Fc fusion to GLPS-F3 relative to binding in absence of sugar competitor [3] [%] | Percentage of binding of TLR4.Fc to GLPS-F3 relative to binding in absence of sugar competitor [4] [%] | Percentage of binding of MMR.Fc to GLPS-F3 relative to binding in absence of sugar competitor [5] [%] | Percentage of binding of CLEC-2 Fc fusion to GLPS-F3 relative to binding in absence of sugar competitor [6] [%] | Percentage of binding of CLEC-6 Fc fusion to GLPS-F3 relative to binding in absence of sugar competitor [7] [%] | Antagonistic DV1 (suppression of DV-induced TNF-α secretion) [8, 9] | Antagonistic DV2 (suppression of DV-induced TNF-α secretion) [8, 9] | Antagonistic DV3 (suppression of DV-induced TNF-α secretion) [8, 9] | Antagonistic DV4 (suppression of DV-induced TNF-α secretion) [8, 9] | TNF-α release from macrophages after infection with DEN1, DEN2, DEN3 and DEN4 ([8]; dose-dependent manner, ELISA of culture supernatants)
CC(=O)N[C@H]1C(O)O[C@H](CO)[C@H](O)[C@@H]1O (stereo partly drawn) [GalNAc, N-acetyl-galactosamine] | 88 ± 2.6 | 97 ± 0.7 | 110 ± 3.1 | 95 ± 4.1 | 80 ± 4.2 | 110 ± 11.4 | 96 ± 2.4 |  |  |  |  | 
B1 |  |  |  |  |  |  |  | * (“*” - p < 0.05) | *** (“***” - p < 0.001) | ** (“**” - p < 0.01) | * (“*” - p < 0.05) | suppressed
